Laboratory results: the supplement of paper PMC10307832

What was measured:
Experiment in all cases: relative viability (nuclei count vs DMSO), 5 days (fraction); higher = more cells survive
Doxorubicin + Navitoclax = compound: COc1cccc2c1C(=O)c1c(O)c3c(c(O)c1C2=O)C[C@@](O)(C(=O)CO)C[C@@H]3O[C@H]1C[C@H](N)[C@H](O)[C@H](C)O1 [Doxorubicin] + CC1(C)CCC(c2ccc(Cl)cc2)=C(CN2CCN(c3ccc(C(=O)NS(=O)(=O)c4ccc(N[C@H](CCN5CCOCC5)CSc5ccccc5)c(S(=O)(=O)C(F)(F)F)c4)cc3)CC2)C1 [Navitoclax] (partner 0.5 µM)
In short: (§1)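 Each reported value is a median over duplicate plates. It expresses relative viability: treated-well nuclei count divided by vehicle-well nuclei count. Lung cancer cell lines in 1536-well plates were dosed by pin tool a day after seeding, alone with one drug or with a fixed anchor-drug dose plus five library-drug doses (not always all listed) in √10 steps, and nuclei were counted after 5 days.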

Doxorubicin = compound: COc1cccc2c1C(=O)c1c(O)c3c(c(O)c1C2=O)C[C@@](O)(C(=O)CO)C[C@@H]3O[C@H]1C[C@H](N)[C@H](O)[C@H](C)O1 [Doxorubicin]
In short: (§2)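 MetaXpress counted nuclei in 4× images of lung cancer cell lines that had been fixed, permeabilised and Hoechst-stained in one step. Before that, cells in 1536-well plates were kept overnight at 37 °C, pinned with five √10-spaced library-drug doses on vehicle-anchored plates, and cultured 5 days without medium change. Viability takes treated-well nuclei over vehicle-well nuclei and uses the median across plates. Plates were accepted only at control CV below 25% and at least one doubling.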

BAY61-3606 = compound: COC1=C(C=C(C=C1)C2=CC3=NC=CN3C(=N2)NC4=C(C=CC=N4)C(=O)N)OC [BAY61-3606]
In short: as §2

BAY61-3606 + Trametinib = compound: COC1=C(C=C(C=C1)C2=CC3=NC=CN3C(=N2)NC4=C(C=CC=N4)C(=O)N)OC [BAY61-3606] + CC(=O)Nc1cccc(-n2c(=O)n(C3CC3)c(=O)c3c(Nc4ccc(I)cc4F)n(C)c(=O)c(C)c32)c1 [Trametinib] (partner 0.02 µM)
In short: as §1

Cell Line	relative viability (Doxorubicin + Navitoclax; first compound 0.001 µM)	relative viability (Doxorubicin + Navitoclax; first compound 0.003162 µM)	relative viability (Doxorubicin + Navitoclax; first compound 0.01 µM)	relative viability (Doxorubicin + Navitoclax; first compound 0.03162 µM)	relative viability (Doxorubicin + Navitoclax; first compound 0.1 µM)	relative viability (Doxorubicin; 0.001 µM)	relative viability (Doxorubicin; 0.003162 µM)	relative viability (Doxorubicin; 0.01 µM)	relative viability (Doxorubicin; 0.03162 µM)	relative viability (Doxorubicin; 0.1 µM)	relative viability (BAY61-3606; 0.02 µM)	relative viability (BAY61-3606; 0.06325 µM)	relative viability (BAY61-3606; 0.2 µM)	relative viability (BAY61-3606; 0.6325 µM)	relative viability (BAY61-3606; 2 µM)	relative viability (BAY61-3606 + Trametinib; first compound 0.02 µM)	relative viability (BAY61-3606 + Trametinib; first compound 0.06325 µM)	relative viability (BAY61-3606 + Trametinib; first compound 0.2 µM)	relative viability (BAY61-3606 + Trametinib; first compound 0.6325 µM)	relative viability (BAY61-3606 + Trametinib; first compound 2 µM)
Calu-6	0.835	0.91	0.581	0.24	0.113	0.966	1.02	0.929	0.566	0.431	1.07	1.05	0.979	0.963	0.807	–	–	–	–	–
NCI-H441	–	0.688	0.351	0.308	0.423	0.687	0.957	0.677	0.359	0.326	1.12	1.15	1.01	1.15	0.682	0.491	0.417	0.363	0.483	0.371
HCC-366	–	1.03	0.99	0.809	1.07	0.909	0.991	1.02	0.959	0.587	0.988	1.03	1.01	0.96	0.903	0.345	0.319	0.327	0.268	0.21
EMC-BAC-2	1.16	1.25	1.16	1.19	1.15	1.34	0.844	0.748	0.469	0.326	1.04	1	0.921	0.988	0.942	0.938	0.883	0.944	1.17	1.05
NCI-H1299	1.05	1.06	1.08	1.06	0.947	1.02	1.05	0.984	1.02	0.943	1.02	1.01	1.02	1.04	0.989	–	–	–	–	–
ABC-1	–	–	–	–	–	0.943	1.01	0.811	0.414	0.307	1.04	0.942	0.986	1.03	0.854	–	–	–	–	–
LCLC-103H	–	–	–	–	–	0.966	1.04	0.981	1.02	0.957	1.07	0.992	0.993	1.03	0.987	0.708	0.715	0.666	0.654	0.65
IA-LM	0.616	0.821	0.6	0.278	0.0497	0.902	1.04	0.889	0.749	0.508	0.984	0.864	0.956	1.03	0.86	–	–	–	–	–
NCI-H1563	–	–	–	–	–	0.939	0.939	0.747	0.698	0.683	1.16	0.993	1.01	0.994	0.814	–	–	–	–	–
NCI-H650	–	–	–	–	–	1	0.86	0.92	0.83	0.741	1	0.802	0.818	0.942	0.745	1.09	1.05	0.922	0.93	0.838
NCI-H1703	0.735	0.902	0.386	0.195	0.14	0.857	0.936	0.812	0.4	0.351	1.16	0.789	0.77	0.919	0.558	–	–	–	–	–
SW 900	–	–	–	–	–	0.671	0.992	0.774	0.665	0.404	0.895	0.762	0.678	0.937	0.813	0.877	–	–	0.87	0.585
A549	1.15	0.977	0.468	0.0557	0.0324	1	0.991	0.869	0.395	0.503	1.01	1.07	0.959	1.05	0.857	–	–	–	–	–
NCI-H2342	–	–	–	–	–	0.938	1.03	0.929	0.763	0.877	0.966	1.02	0.908	0.966	1.15	0.899	0.912	0.855	0.712	0.953
NCI-H358	–	–	–	–	–	0.975	1.04	0.761	0.235	0.199	0.954	0.947	0.87	0.864	0.369	0.137	0.158	0.143	0.146	0.0995
NCI-H1623	–	–	–	–	–	0.934	0.968	0.965	0.947	0.992	0.892	0.891	0.911	0.953	0.927	–	–	–	–	–
NCI-H522	–	–	–	–	–	0.741	0.938	0.988	0.838	0.894	0.961	0.907	0.953	0.954	0.933	0.607	0.723	0.818	0.764	0.688
EBC-1	0.488	0.524	0.377	0.171	0.123	1	1.09	1.01	0.702	0.534	1.04	0.999	0.953	1.04	0.888	–	–	–	–	–
